Data from patent US20120070511A1, “MITOCHONDRIAL INHIBITORS AND USES THEREOF” (priority 2009, published 2012).
Read-outs that look alike come from different tables or passages of the source.

How the values were obtained:
Type in all cases: cell-based
[1] = test system: MM.1S cells; assay: Reversal of CCCP induced toxicity (trypan blue exclusion); conditions: 10 μM BAPTA-AM or 50 μM of Z-VAD
Protocol: A) Reversal of CCCP induced toxicity by either 10 μM BAPTA-AM or 50 μM of Z-VAD was investigated using trypan blue exclusion assays. The bars represent the average of triplicate samples +SD. B) ATP levels were assayed following 6 h of treatment with indicated concentrations of CCCP. The bars represent the average of triplicate samples +SD. C) Induction of UPR, activation of AMPK pathway and cleavage of caspase 3 was analyzed by western blots following 24 h treatment with indicated concentrations of CCCP in MM.1S and REH cell lines. β-Actin was used as a loading control. D) The quantification of phosphorylated AMPK and total AMPK bands in the previous panel was done using a Bio-Rad gel reader which employs Quality I software. The bars represent the fold increase in the ratio of p-AMPK/AMPK in treated versus untreated samples from three independent experiments +SD.
(§1) Cytotoxicity assay: Cells were incubated for 24 h at 37° C. in 5% CO2 at which time drug treatments began and continued for 24 h. At this time cells were transferred to a tube followed by centrifugation at 400 g for 5 min. The pellets were resuspended in 1 ml of Hanks solution and analyzed by Vi-Cell (Beckman Coulter, Fullerton, Calif., USA) cell viability analyzer.

[2] = test system: multiple myeloma cell lines (MM.1S, 8226, KMS-11, U266)
Protocol: (§2) Cytotoxicity assay: Cells were incubated for 24 hr at 37° C. in 5% CO2 at which time drug treatments began and continued for 24 hr. At this time attached cells were trypsinized and combined with their respective culture media while suspension cells were directly transferred to a tube followed by centrifugation at 400 g for 5 min. The pellets were resuspended in 1 ml of Hanks solution and analyzed by Vi-Cell (Beckman Coulter, Fullerton, Calif.) cell viability analyzer.

[3] = test system: non-myeloma cell lines (NALM6, 143B, MDA-MB-435, 1420)
Protocol: as §2

[4] = test system: B-cell leukemia lines (NALM6, REH)
Protocol: as §1

[5] = test system: MM cell lines (MM.1S, 8226, KMS-11)
Protocol: as §1

[6] = test system: MM cell lines (MM1.S, 8226, KMS-11, U266); assay: Measurement of cytoplasmic calcium (indo-1 fluorescence ratio 400/500 nm); conditions: for effect on mitochondrial Ca2+ uptake / cytoplasmic Ca2+ after mitochondrial inhibitor: MM cell lines; for effect on mitochondrial Ca2+ uptake: estimated from cytoplasmic Ca2+
Protocol: (§3) Measurement of cytoplasmic calcium: Cytoplasmic Ca^2+ concentration was estimated by using the cell permeant fluorochrome indo-1-AM (Invitrogen, Carlsbad, Calif.). When excited at 355 nm, the maximum emission of indo-1 shifts from 500 nm to 400 nm following its binding to free Ca^2+. Thus, the ratio of reading at 400 nm and 500 nm correlates with concentration of cytoplasmic Ca^2+. Experiments were performed in cells loaded with indo-1 by incubating them with 2.5 μM of this fluorochrome at 37° C. for 45 min. Cells were then centrifuged at 400 g for 5 min and resuspended in their growth medium followed by distribution of 100 μl of aliquots into 96 well optical bottom plates (Nalge Nunc, Int., Rochester, N.Y.) and fluorescence was measured by Spectra Max Gemini Plus (Molecular Devices, Sunnyvale, Calif.). The average of triplicates from untreated samples was used as control reading and increase in cytoplasmic Ca^2+ was calculated as percent increase from control samples.

[7] = test system: non-myeloma cell lines (NALM6, MDA-MB-435, 143B, 1420); assay: as above; conditions: for increase in cytoplasmic Ca2+ after mitochondrial inhibitor: non-myeloma cell lines (oligomycin: all cell lines)
Protocol: as §3

[8] = test system: CHOP/GADD153 and cleaved caspase 3 in 4 MM cell lines; assay: Western blot of CHOP/GADD153 and cleaved caspase 3 (UPR-mediated apoptosis); conditions: all 4 MM cell lines
Protocol: Western Blot analysis: Cells are plated at 10^4 cell/cm^−2 for attached cells and 3×10^5/ml for suspension cells and grown under drug treatment for the indicated times. At the end of the treatment period, cells are collected and lysed with 1% SDS in 80 mM Tris-HCL (ph 7.4) buffer supplemented with a proteinase inhibitor cocktail. DNA is fragmented by sonication and protein concentrations are measured by microBCA protein assay kit (Pierce, Rockford, Ill.). Samples are mixed with 3× Laemmli sample buffer (Cell Signaling, Danvers, Mass.) and 40 μg of protein was run on a 12% SDS-polyacrylamide gel. Gels are transferred to nitrocellulose membranes (Amersham, Piscataway, N.J.) and probed with monoclonal rabbit anti-GRP94, anti GRP-78, anti-PDI, anti-CHOP/GADD153, anti-cleaved caspase 3 (Cell Signaling, Danvers, Mass.) and monoclonal mouse anti-β-actin (Sigma, St. Louis, Mo.). Following probing, membranes are washed and incubated with HRP-conjugated secondary antibody (Invitrogen, Carlsbad, Calif.). Following addition of 1:3 diluted femto-chemiluminescent substrate (Pierce, Rockford, Ill.) membranes were exposed to blue autoradiographic film (ISC bioexpress, Kaysville, Utah). Where indicated, membranes were stripped with Stripping Buffer (Pierce, Rockford, Ill.) and reprobed with anti-β-actin (Sigma-Aldrich, St. Louis, Mo.) primary antibody. When needed, the blots were quantified using Bio-Rad gel reader which employs Quality I software (Bio-Rad, Hercules, Calif.).

[9] = test system: CHOP/GADD153 and cleaved caspase 3 in MM.1S, 8226, KMS-11; assay: Western blot of CHOP/GADD153 and cleaved caspase 3 in 3 MM cell lines; conditions: concentrations of FIG. 13
Protocol: . Induction of UPR-mediated apoptosis following treatment of 3 MM cell lines with four different mitochondrial inhibitors for various time points was assayed by western blot analysis of CHOP and cleaved caspase 3.
Western blot analysis: Western blots were performed. Membranes were probed with monoclonal rabbit anti-GRP94, anti GRP-78, anti-PDI, anti-CHOP/GADD153, anti-cleaved caspase 3 (Cell Signaling, Danvers, Mass., USA) and monoclonal mouse anti-β-actin (Sigma, St. Louis, Mo., USA).

[10] = test system: MM (MM.1S, 8226, KMS-11) and B-cell leukemia (NALM6, REH) cell lines; assay: ER Ca2+ leak: cytoplasmic Ca2+ (indo-1) after thapsigargine, Example 2
Protocol: Measurement of cytoplasmic and mitochondrial calcium: Cytoplasmic Ca^2+ concentration was estimated by using the cell permeant ratiometric fluorochrome indo-1-AM (Invitrogen, Carlsbad, Calif., USA) while mitochondrial Ca^2+ was measured by X-Rhod-1-AM (Invitrogen, Carlsbad, Calif., USA). In the latter assay, to normalize mitochondrial Ca^2+ signal to mitochondria number, Mitotracker Green (Invitrogen, Carlsbad, Calif., USA) fluorescence was simultaneously analyzed. Experiments were performed in cells loaded with either 2.5 μM of indo-1 or 5 μM X-rhod-1 and 250 nM of Mitotracker at 37° C. for 45 min. Cells were, then, centrifuged at 400 g for 5 min and resuspended in their growth medium followed by distribution of 100 μl of aliquots into 96 well optical bottom plates (Nalge Nunc, Int., Rochester, N.Y., USA) and fluorescence was measured by Spectra Max Gemini Plus (Molecular Devices, Sunnyvale, Calif., USA). The average of triplicates from untreated samples was used as control reading and increase in cytoplasmic or mitochondrial Ca^2+ was calculated as percent increase from control samples.
Due to the high levels of glycoprotein production in MM cells, it was investigated whether there is a greater ER Ca^2+ leak in these cells as compared to Bcells. As shown in previous reports, ER Ca^2+ leak can be assayed indirectly by measuring cytoplasmic Ca^2+ concentration following inhibition of SERCA by thapsigargine.

[11] = 24 h, at doses toxic to MM cell lines
[12] = 24 h, at concentrations toxic to MM cell lines

Row | Molecule | cytotoxicity (cell death) [2] | cytotoxicity [3, 11] | cytotoxicity [4, 12] | cytotoxicity (cell death) [5] | increase in cytoplasmic Ca2+ after mitochondrial inhibitor [7] | treatment time at which CHOP/GADD153 expression is noted [8] | CHOP/GADD153 expression relative to CCCP [9] | other results
1 | CC(=O)OCOC(=O)CN(CC(=O)OCOC(C)=O)c1ccccc1OCCOc1ccccc1N(CC(=O)OCOC(C)=O)CC(=O)OCOC(C)=O [BAPTA-AM] | – | – | – | – | – | – | – | reversal of CCCP induced toxicity [1]: does not reverse the toxicity of CCCP
2 | CC(C)OC(=O)C(C)(C)Oc1ccc(C(=O)c2ccc(Cl)cc2)cc1 [fenofibrate] | significant toxicity | not toxic to non-myeloma cells | less toxic to B-cell leukemia lines | significant toxicity | – | – | – | –
3 | CC[C@H]1/C=C/C=C/C[C@@H](C)[C@H](O)[C@@](C)(O)C(=O)[C@@H](C)[C@H](O)[C@@H](C)C(=O)[C@@H](C)[C@H](O)[C@@H](C)/C=C/C(=O)O[C@@H]2[C@H](C)[C@H](CC1)O[C@]1(CC[C@H](C)[C@H](C[C@@H](C)O)O1)[C@H]2C [oligomycin] | – | little or no toxicity | little or no toxicity | – | minimal or no effect | 6 h | comparable to that induced by CCCP | cytotoxic potency compared to the other mitochondrial inhibitors ([2]; 24 h, MM cells): less toxic potency in MM cells when compared to other inhibitors; cytotoxicity (cell death) ([2]; 24 h treatment, all 4 MM cell lines): significant cell death; effect on mitochondrial Ca2+ uptake [6]: little or no effect; cytotoxicity (cell death) ([5]; 24 h, all 3 MM cell lines): significant cell death
4 | C=C(C)[C@H]1Cc2c(ccc3c2O[C@@H]2COc4cc(OC)c(OC)cc4[C@@H]2C3=O)O1 [rotenone] | significant cell death | – | – | significant cell death | not seen in non-myeloma cell lines except for NALM6 | 6 h | less CHOP/GADD153 expression than CCCP | cytotoxic potency compared to the other mitochondrial inhibitors [2]: equipotency in inducing cytotoxicity in MM cells; cytotoxicity [3]: little or no toxicity; cytoplasmic Ca2+ after mitochondrial inhibitor [6]: immediate increase in cytoplasmic Ca^2+; effect on mitochondrial Ca2+ uptake [6]: equally inhibit mitochondrial Ca^2+ uptake; cytotoxicity [4]: little or no toxicity
5 | C/C=C(/C)C(=O)O[C@H]1C(C)=C2[C@H]([C@@H]1OC(=O)CCCCCCC)[C@@](C)(OC(C)=O)C[C@H](OC(=O)CCC)[C@@]1(O)[C@H]2OC(=O)[C@@]1(C)O [thapsigargine] | sensitive | resistant | resistant | sensitive | – | – | – | order of sensitivity among MM cell lines ([2]; 24 h treatment): MM.1S>8226>KMS-11>U266; cytoplasmic Ca2+ increase after thapsigargine in 8226 ([6]; 8226 compared to KMS-11 or U266): increase less than that observed in KMS-11 or U266 cell lines; lag before increase in cytoplasmic Ca2+ ([6]; U266 (printed U226) cell line): ~20 min; cytoplasmic Ca2+ concentration after thapsigargine ([6]; immediately after addition, MM1.S, 8226 and KMS-11): significantly increases; cytoplasmic Ca2+ after thapsigargine ([7]; 143B and 1420, 30 min. after addition): significantly increases; cytoplasmic Ca2+ after thapsigargine ([7]; NALM6 and MDA-MB-435): little or no change; order of ER Ca2+ leak after thapsigargine ([10]; MM cell lines): MM1.S>8226>KMS-11; cytoplasmic Ca2+ concentration at new equilibrium ([10]; after 30 min, MM versus B-cell leukemias): all 3 MM cell lines had significantly greater cytoplasmic Ca^2+ concentration than the 2 B-cell leukemias; cytoplasmic Ca2+ concentration ([10]; within 5 min after addition, all five cell lines): significantly increases
6 | Cc1c(C)c2c(c(C)c1O)CCC(C)(COc1ccc(CC3SC(=O)NC3=O)cc1)O2 (stereo not drawn) [troglitazone] | significant toxicity | not toxic to non-myeloma cells | less toxic to B-cell leukemia lines | significant toxicity | – | – | – | –
7 | Z-VAD | – | – | – | – | – | – | – | reversal of CCCP induced toxicity [1]: can reverse the majority of CCCP toxicity
8 | antimycin A | significant cell death | – | – | significant cell death | not seen in non-myeloma cell lines except for NALM6 | 6 h | comparable to that induced by CCCP | cytotoxic potency compared to the other mitochondrial inhibitors [2]: less toxic than these two mitochondrial inhibitors; cytotoxicity [3]: little or no toxicity; cytoplasmic Ca2+ after mitochondrial inhibitor [6]: immediate increase in cytoplasmic Ca^2+; cytotoxicity [4]: little or no toxicity
